From publication PMC5341858, “Molecular regulation of apoptotic machinery and lipid metabolism by mTORC1/mTORC2 dual inhibitors in preclinical models of HER2+/PIK3CAmut breast cancer” (Oncotarget, 2016)
pKd: −log10 of the molar value.

Key:
Assay in all cases: KINOMEscan binding assay
TGFBR1 = biological target: T1, TGFBR1 (Homo sapiens, UniProt P36897); settings: 1000 nM, percent control relative to vehicle
T1 construct: purchased DiscoveRx KINOMEscan
Excerpt: (§1) IC50 values were generated using Graphpad PRISM 5 software.

KIT = biological target: T2, KIT (Homo sapiens, UniProt P10721); settings: 1000 nM, percent control relative to vehicle
T2 construct: purchased DiscoveRx KINOMEscan
Excerpt: as §1

BTK = biological target: T3, BTK (Homo sapiens, UniProt Q06187); settings: 1000 nM, percent control relative to vehicle
T3 construct: purchased DiscoveRx KINOMEscan
T3 sequence (Q06187 whole entry): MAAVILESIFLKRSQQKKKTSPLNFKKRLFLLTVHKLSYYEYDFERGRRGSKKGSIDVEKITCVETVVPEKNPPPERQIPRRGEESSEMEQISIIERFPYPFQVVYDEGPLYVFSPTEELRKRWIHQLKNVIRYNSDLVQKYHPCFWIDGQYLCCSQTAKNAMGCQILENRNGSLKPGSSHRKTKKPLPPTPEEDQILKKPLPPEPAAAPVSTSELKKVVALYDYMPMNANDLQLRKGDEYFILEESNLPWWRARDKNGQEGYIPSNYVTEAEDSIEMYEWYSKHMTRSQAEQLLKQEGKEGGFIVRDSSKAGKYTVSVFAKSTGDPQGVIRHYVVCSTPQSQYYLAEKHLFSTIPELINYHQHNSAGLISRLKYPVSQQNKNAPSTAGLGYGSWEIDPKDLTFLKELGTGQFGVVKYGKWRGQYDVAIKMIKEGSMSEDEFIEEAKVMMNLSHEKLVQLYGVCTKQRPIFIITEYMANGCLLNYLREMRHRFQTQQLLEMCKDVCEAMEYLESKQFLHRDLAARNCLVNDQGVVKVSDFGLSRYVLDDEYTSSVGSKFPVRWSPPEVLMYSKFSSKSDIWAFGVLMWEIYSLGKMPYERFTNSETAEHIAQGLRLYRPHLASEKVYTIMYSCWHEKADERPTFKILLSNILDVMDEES
Excerpt: as §1

ERK1 = biological target: T4, ERK1 (Homo sapiens, UniProt P27361); settings: 1000 nM, percent control relative to vehicle
T4 construct: purchased DiscoveRx KINOMEscan
Excerpt: as §1

ABL1-nonphosphorylated = biological target: T5, ABL1-nonphosphorylated (Homo sapiens, UniProt P00519); settings: 1000 nM, percent control relative to vehicle
T5 construct: purchased DiscoveRx KINOMEscan
Excerpt: as §1

TRKA = biological target: T6, TRKA (Homo sapiens, UniProt P04629); settings: 1000 nM, percent control relative to vehicle
T6 construct: purchased DiscoveRx KINOMEscan
Excerpt: as §1

MAP3K4 = biological target: T7, MAP3K4 (Homo sapiens, UniProt Q9Y6R4); settings: 1000 nM, percent control relative to vehicle
T7 construct: purchased DiscoveRx KINOMEscan
Excerpt: as §1

MARK3 = biological target: T8, MARK3 (Homo sapiens, UniProt P27448); settings: 1000 nM, percent control relative to vehicle
T8 construct: purchased DiscoveRx KINOMEscan
Excerpt: as §1

PDGFRA = biological target: T9, PDGFRA (Homo sapiens, UniProt P16234); settings: 1000 nM, percent control relative to vehicle
T9 construct: purchased DiscoveRx KINOMEscan
Excerpt: as §1

IKK-alpha = biological target: T10, IKK-alpha (Homo sapiens, UniProt O15111); settings: 1000 nM, percent control relative to vehicle
T10 construct: purchased DiscoveRx KINOMEscan
Excerpt: as §1

DCAMKL1 = biological target: T11, DCAMKL1 (Homo sapiens, UniProt O15075); settings: 1000 nM, percent control relative to vehicle
T11 construct: purchased DiscoveRx KINOMEscan
Excerpt: as §1

ERBB4 = biological target: T12, ERBB4 (Homo sapiens, UniProt Q15303); settings: 1000 nM, percent control relative to vehicle
T12 construct: purchased DiscoveRx KINOMEscan
Excerpt: as §1

ULK2 = biological target: T13, ULK2 (Homo sapiens, UniProt Q8IYT8); settings: 1000 nM, percent control relative to vehicle
T13 construct: purchased DiscoveRx KINOMEscan
Excerpt: as §1

AKT2 = biological target: T14, AKT2 (Homo sapiens, UniProt P31751); settings: 1000 nM, percent control relative to vehicle
T14 construct: purchased DiscoveRx KINOMEscan
Excerpt: as §1

CDK9 = biological target: T15, CDK9 (Homo sapiens, UniProt P50750); settings: 1000 nM, percent control relative to vehicle
T15 construct: purchased DiscoveRx KINOMEscan
Excerpt: as §1

PDPK1 = biological target: T16, PDPK1 (Homo sapiens, UniProt O15530); settings: 1000 nM, percent control relative to vehicle
T16 construct: purchased DiscoveRx KINOMEscan
Excerpt: as §1

FGFR2 = biological target: T17, FGFR2 (Homo sapiens, UniProt P21802); settings: 1000 nM, percent control relative to vehicle
T17 construct: purchased DiscoveRx KINOMEscan
T17 sequence (P21802 22-821): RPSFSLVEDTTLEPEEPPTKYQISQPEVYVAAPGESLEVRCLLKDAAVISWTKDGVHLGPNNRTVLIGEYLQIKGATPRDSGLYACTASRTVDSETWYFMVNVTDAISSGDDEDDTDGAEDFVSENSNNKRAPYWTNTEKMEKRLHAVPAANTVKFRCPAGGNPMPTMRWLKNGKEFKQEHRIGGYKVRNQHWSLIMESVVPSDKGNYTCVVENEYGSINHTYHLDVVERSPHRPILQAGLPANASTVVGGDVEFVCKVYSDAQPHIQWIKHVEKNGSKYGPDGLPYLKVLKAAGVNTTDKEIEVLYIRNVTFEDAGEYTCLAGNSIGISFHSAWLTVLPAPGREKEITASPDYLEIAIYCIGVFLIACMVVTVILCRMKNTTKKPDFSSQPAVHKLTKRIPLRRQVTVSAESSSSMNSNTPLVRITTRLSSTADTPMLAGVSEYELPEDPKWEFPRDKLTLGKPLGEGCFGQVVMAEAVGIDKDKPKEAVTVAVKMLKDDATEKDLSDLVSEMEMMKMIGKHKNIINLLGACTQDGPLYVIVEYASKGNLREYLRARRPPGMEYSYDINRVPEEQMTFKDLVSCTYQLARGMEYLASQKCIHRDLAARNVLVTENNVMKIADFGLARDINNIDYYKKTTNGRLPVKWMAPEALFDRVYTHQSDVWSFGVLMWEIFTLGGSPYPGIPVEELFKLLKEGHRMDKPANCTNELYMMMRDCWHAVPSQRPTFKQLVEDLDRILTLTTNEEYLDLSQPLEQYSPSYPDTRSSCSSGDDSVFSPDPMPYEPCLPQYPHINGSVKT
Excerpt: as §1

PIM1 = biological target: T18, PIM1 (Homo sapiens, UniProt P11309); settings: 1000 nM, percent control relative to vehicle
T18 construct: purchased DiscoveRx KINOMEscan
Excerpt: as §1

JNK3 = biological target: T19, JNK3 (Homo sapiens, UniProt P53779); settings: 1000 nM, percent control relative to vehicle
T19 construct: purchased DiscoveRx KINOMEscan
Excerpt: as §1

MEK2 = biological target: T20, MEK2 (Homo sapiens, UniProt P36507); settings: 1000 nM, percent control relative to vehicle
T20 construct: purchased DiscoveRx KINOMEscan
Excerpt: as §1

p38-alpha = biological target: T21, p38-alpha (Homo sapiens, UniProt Q16539); settings: 1000 nM, percent control relative to vehicle
T21 construct: purchased DiscoveRx KINOMEscan
Excerpt: as §1

ACVR1B = biological target: T22, ACVR1B (Homo sapiens, UniProt P36896); settings: 1000 nM, percent control relative to vehicle
T22 construct: purchased DiscoveRx KINOMEscan
Excerpt: as §1

ADCK3 = biological target: T23, ADCK3 (Homo sapiens, UniProt Q8NI60); settings: 1000 nM, percent control relative to vehicle
T23 construct: purchased DiscoveRx KINOMEscan
Excerpt: as §1

SNARK = biological target: T24, SNARK (Homo sapiens, UniProt Q9H093); settings: 1000 nM, percent control relative to vehicle
T24 construct: purchased DiscoveRx KINOMEscan
Excerpt: as §1

[1] = biological target: T25, ABL1 (E255K)- phosphorylated (Homo sapiens, UniProt P00519, E255K); settings: 1000 nM, percent control relative to vehicle
T25 construct: purchased DiscoveRx KINOMEscan
Excerpt: as §1

CDK7 = biological target: T26, CDK7 (Homo sapiens, UniProt P50613); settings: 1000 nM, percent control relative to vehicle
T26 construct: purchased DiscoveRx KINOMEscan
Excerpt: as §1

PAK2 = biological target: T27, PAK2 (Homo sapiens, UniProt Q13177); settings: 1000 nM, percent control relative to vehicle
T27 construct: purchased DiscoveRx KINOMEscan
T27 sequence (Q13177 whole entry): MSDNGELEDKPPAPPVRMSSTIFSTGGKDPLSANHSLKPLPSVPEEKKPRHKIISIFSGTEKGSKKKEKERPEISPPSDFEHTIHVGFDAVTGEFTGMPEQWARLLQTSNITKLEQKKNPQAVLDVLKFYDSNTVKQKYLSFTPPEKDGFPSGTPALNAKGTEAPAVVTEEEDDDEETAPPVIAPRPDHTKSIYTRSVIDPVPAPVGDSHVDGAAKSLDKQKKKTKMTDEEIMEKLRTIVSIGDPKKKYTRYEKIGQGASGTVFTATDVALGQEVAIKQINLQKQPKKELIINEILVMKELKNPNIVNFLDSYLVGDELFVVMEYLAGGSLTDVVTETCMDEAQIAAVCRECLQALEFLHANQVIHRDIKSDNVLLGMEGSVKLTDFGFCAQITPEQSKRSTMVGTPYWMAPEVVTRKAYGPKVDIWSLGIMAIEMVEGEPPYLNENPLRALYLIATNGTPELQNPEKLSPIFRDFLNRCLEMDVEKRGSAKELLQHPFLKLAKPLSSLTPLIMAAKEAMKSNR
Excerpt: as §1

MET = biological target: T28, MET (Homo sapiens, UniProt P08581); settings: 1000 nM, percent control relative to vehicle
T28 construct: purchased DiscoveRx KINOMEscan
T28 sequence (P08581 25-1390): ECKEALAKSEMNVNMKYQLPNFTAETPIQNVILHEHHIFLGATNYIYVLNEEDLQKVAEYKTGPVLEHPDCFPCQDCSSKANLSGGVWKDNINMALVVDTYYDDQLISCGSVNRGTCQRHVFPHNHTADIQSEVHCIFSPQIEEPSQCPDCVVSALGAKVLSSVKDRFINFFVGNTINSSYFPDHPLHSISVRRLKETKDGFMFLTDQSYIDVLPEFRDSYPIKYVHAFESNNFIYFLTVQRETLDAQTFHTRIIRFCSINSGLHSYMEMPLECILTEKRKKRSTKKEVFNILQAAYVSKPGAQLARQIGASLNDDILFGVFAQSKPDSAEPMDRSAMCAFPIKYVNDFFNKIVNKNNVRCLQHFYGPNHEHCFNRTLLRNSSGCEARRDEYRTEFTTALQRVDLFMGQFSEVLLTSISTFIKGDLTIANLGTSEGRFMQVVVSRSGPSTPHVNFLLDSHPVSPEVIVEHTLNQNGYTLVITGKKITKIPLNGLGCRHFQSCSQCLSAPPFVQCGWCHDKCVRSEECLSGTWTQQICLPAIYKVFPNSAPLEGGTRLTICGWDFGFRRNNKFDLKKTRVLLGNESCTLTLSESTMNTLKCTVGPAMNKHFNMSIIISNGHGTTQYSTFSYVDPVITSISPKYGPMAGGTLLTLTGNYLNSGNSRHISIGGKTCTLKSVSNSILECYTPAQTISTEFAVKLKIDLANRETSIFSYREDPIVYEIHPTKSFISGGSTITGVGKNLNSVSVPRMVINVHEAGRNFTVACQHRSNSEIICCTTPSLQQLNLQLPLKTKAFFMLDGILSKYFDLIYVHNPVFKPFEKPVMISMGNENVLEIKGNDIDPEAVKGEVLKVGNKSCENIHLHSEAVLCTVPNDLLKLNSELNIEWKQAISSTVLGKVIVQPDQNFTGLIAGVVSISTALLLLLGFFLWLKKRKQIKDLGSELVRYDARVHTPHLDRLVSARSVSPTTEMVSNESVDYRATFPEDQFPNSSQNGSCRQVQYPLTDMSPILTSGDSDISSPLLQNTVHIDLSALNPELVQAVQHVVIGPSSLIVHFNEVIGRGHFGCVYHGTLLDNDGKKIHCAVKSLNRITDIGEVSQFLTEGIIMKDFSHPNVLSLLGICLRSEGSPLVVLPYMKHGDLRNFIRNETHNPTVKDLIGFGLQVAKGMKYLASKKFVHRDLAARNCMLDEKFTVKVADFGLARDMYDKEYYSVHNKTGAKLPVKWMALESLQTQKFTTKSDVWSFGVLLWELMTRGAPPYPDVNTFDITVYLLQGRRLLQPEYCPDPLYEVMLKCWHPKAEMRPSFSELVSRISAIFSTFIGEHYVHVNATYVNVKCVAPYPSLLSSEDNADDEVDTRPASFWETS
Excerpt: as §1

PIK3C2B = biological target: T29, PIK3C2B (Homo sapiens, UniProt O00750); settings: 1000 nM, percent control relative to vehicle
T29 construct: purchased DiscoveRx KINOMEscan
T29 sequence (O00750 whole entry): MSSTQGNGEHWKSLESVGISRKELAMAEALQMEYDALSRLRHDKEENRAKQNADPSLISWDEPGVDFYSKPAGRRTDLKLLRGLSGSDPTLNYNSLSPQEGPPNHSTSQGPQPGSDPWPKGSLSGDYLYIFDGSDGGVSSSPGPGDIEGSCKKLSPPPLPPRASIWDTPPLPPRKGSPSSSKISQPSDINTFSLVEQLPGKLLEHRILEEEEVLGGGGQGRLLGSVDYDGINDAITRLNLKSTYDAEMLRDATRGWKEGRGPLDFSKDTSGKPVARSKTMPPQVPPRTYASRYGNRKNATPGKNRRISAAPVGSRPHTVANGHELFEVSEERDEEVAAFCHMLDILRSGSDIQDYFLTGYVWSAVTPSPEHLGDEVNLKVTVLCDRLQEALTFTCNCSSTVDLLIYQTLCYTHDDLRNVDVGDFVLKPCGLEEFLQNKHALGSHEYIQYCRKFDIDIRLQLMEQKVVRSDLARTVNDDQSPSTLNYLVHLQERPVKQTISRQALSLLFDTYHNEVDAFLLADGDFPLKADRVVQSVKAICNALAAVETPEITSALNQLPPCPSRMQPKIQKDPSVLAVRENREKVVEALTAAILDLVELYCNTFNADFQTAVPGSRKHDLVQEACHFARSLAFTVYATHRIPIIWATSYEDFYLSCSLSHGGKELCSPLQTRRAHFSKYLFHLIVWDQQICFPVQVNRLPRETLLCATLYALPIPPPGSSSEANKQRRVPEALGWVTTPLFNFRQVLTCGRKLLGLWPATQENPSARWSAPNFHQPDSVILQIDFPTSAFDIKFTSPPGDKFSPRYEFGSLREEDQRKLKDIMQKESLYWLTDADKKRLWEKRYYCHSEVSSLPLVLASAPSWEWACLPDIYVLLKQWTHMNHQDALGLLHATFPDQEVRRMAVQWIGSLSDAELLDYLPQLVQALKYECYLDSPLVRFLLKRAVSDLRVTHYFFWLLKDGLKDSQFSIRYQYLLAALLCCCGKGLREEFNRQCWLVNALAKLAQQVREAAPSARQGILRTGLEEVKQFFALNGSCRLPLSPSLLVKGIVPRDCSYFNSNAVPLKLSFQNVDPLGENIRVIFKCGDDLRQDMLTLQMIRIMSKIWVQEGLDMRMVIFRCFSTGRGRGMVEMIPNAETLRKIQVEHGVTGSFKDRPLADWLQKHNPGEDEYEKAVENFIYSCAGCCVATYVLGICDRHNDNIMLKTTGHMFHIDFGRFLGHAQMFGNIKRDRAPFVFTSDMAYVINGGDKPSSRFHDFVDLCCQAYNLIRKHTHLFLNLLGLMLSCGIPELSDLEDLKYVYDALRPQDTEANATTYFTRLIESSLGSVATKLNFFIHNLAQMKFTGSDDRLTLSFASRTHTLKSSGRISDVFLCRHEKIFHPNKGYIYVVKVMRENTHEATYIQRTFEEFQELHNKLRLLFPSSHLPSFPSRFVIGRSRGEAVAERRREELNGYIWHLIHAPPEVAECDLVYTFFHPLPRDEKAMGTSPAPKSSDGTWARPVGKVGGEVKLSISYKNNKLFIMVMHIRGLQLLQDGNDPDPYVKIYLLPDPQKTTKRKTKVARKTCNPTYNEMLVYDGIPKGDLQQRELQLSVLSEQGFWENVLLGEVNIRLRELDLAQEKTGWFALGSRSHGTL
Excerpt: as §1

[2] = biological target: T30, JAK2 (JH1domain-catalytic) (Homo sapiens, UniProt O60674); settings: 1000 nM, percent control relative to vehicle
T30 construct: JAK2 (JH1domain-catalytic); purchased DiscoveRx KINOMEscan
Excerpt: as §1

INSR = biological target: T31, INSR (Homo sapiens, UniProt P06213); settings: 1000 nM, percent control relative to vehicle
T31 construct: purchased DiscoveRx KINOMEscan
Excerpt: as §1

AXL = biological target: T32, AXL (Homo sapiens, UniProt P30530); settings: 1000 nM, percent control relative to vehicle
T32 construct: purchased DiscoveRx KINOMEscan
Excerpt: as §1

PIK3CB = PIK3CB (Homo sapiens, UniProt P42338)
Excerpt: as §1

[3] = biological target: T33, JAK3 (JH1domain-catalytic) (Homo sapiens, UniProt P52333); settings: 1000 nM, percent control relative to vehicle
T33 construct: JAK3 (JH1domain-catalytic); purchased DiscoveRx KINOMEscan
Excerpt: as §1

KIT (V559D, T670I) = biological target: T34, KIT (V559D, T670I) (Homo sapiens, UniProt P10721, T670I/V559D); settings: 1000 nM, percent control relative to vehicle
T34 construct: purchased DiscoveRx KINOMEscan
Excerpt: as §1

PLK4 = biological target: T35, PLK4 (Homo sapiens, UniProt O00444); settings: 1000 nM, percent control relative to vehicle
T35 construct: purchased DiscoveRx KINOMEscan
Excerpt: as §1

EPHA2 = biological target: T36, EPHA2 (Homo sapiens, UniProt P29317); settings: 1000 nM, percent control relative to vehicle
T36 construct: purchased DiscoveRx KINOMEscan
Excerpt: as §1

BMPR2 = biological target: T37, BMPR2 (Homo sapiens, UniProt Q13873); settings: 1000 nM, percent control relative to vehicle
T37 construct: purchased DiscoveRx KINOMEscan
Excerpt: as §1

SMILES: CNC(=O)c1cccc(-c2ccc3c(N4C5CCC4COC5)nc(N4CCOC[C@@H]4C)nc3n2)c1 [MTI-31]
- % Control (TGFBR1): 93%
- % Control (KIT): 100%
- % Control (BTK): 68%
- % Control (ERK1): 100%
- % Control (ABL1-nonphosphorylated): 52%
- % Control (TRKA): 84%
- % Control (MAP3K4): 100%
- % Control (MARK3): 71%
- % Control (PDGFRA): 93%
- % Control (IKK-alpha): 82%
- % Control (DCAMKL1): 76%
- % Control (ERBB4): 100%
- % Control (ULK2): 80%
- % Control (AKT2): 94%
- % Control (CDK9): 90%
- % Control (PDPK1): 97%
- % Control (FGFR2): 100%
- % Control (PIM1): 100%
- % Control (JNK3): 96%
- % Control (MEK2): 75%
- % Control (p38-alpha): 100%
- % Control (ACVR1B): 86%
- % Control (ADCK3): 97%
- % Control (SNARK): 89%
- % Control [1]: 78%
- % Control (CDK7): 99%
- % Control (PAK2): 94%
- % Control (MET): 100%
- % Control (PIK3C2B): 100%
- % Control [2]: 88%
- % Control (INSR): 100%
- % Control (AXL): 97%
- pKd (PIK3CB): < 6.00
- % Control [3]: 82%
- % Control (KIT (V559D, T670I)): 100%
- % Control (PLK4): 87%
- % Control (EPHA2): 98%
- % Control (BMPR2): 88%
